# Measured values as given in patent publication US20190210996A1, “NOVEL COMPOUNDS” (GLAXOSMITHKLINE INTELLECTUAL PROPERTY DEVELOPMENT LIMITED, priority 2016, published 2019).
# What was measured:
# Format in all cases: cell-based
# IRAK3 = target: T1, IRAK3 (Homo sapiens, UniProt Q9Y616); assay: Expression proteomics in THP-1 cells: IRAK3 protein level; settings: IRAK3, THP-1 cells
# T1 construct: endogenous in cells; host or cells: THP-1
# T1 sequence (Q9Y616 1-596): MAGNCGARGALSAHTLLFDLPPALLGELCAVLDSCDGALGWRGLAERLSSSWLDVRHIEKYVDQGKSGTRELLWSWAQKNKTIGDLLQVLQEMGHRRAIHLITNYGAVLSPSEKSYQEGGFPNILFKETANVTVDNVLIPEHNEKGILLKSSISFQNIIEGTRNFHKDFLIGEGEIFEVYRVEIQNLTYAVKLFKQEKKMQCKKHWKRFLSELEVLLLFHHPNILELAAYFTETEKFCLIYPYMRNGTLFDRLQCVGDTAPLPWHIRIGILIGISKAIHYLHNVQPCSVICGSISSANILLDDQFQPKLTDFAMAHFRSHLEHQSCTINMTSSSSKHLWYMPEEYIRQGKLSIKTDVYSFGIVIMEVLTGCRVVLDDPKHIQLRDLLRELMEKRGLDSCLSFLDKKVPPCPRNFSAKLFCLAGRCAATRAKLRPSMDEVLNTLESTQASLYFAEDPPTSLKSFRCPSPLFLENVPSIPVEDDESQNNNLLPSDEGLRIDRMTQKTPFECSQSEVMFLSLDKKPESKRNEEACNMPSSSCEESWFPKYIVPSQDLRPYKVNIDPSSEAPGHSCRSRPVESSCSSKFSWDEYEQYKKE
# Method: (§1) THP-1 cells were seeded at a concentration of 3×10^6 cells in T175 flasks with 60 mL growth medium (RPMI1640+10% FBS). […] of a 10× compound solution prepared in growth medium (DMSO), CEREBLON_PROTAC) was added and the cells were treated for the indicated time points (6 or 24 h) at 37° C., 5% CO2. For harvesting the cells were collected into falcon tubes on ice, centrifuged and washed twice in cold PBS (Life technologies). After the last washing step the supernatant was removed and the pellets were snap-frozen in liquid N2 and stored at −80° C. and lysed in 2% SDS for 3 min at 95° C. in a thermomixer (Thermo Fisher Scientific), followed by digestion of DNA with Benzonase at 37° C. for 1.5 h. Lysate was cleared by centrifugation an protein concentration in supernatant was determined by BCA assay.
# (§2) Leukemia 25, 89-100 (2011).
# (§3) Samples were dried in vacuo and resuspended in 0.05% trifluoroacetic acid in water. Of the sample, 50% was injected into an Ultimate3000 nanoRLSC (Dionex, Sunnyvale, Calif.) coupled to a Q Exactive HF (Thermo Fisher Scientific). Peptides were trapped on a 5 mm×300 μm C18 column (Pepmap100, 5 μm, 300 Å, Thermo Fisher Scientific) in water with 0.05% TFA at 60° C. Separation was performed on custom 50 cm×[…] (ID) reversed-phase columns (Reprosil) at 55° C. Gradient elution was performed from 2% acetonitrile to 40% acetonitrile in 0.1% formic acid and 3.5% DMSO over 2 hours. Samples were online injected into Q-Exactive HF mass spectrometers operating with a data-dependent top 10 method. MS spectra were acquired by using 60.000 resolution and an ion target of 3×10^6. Higher energy collisional dissociation (HCD) scans were performed with 35% NCE at 30.000 resolution (at m/z 200), and the ion target settings was set to 2×10^5 so as to avoid coalescence (Werner, T. et al. Ion Coalescence of Neutron Encoded TMT 10-Plex Reporter Ions. Anal. Chem. 86, 3594-3601 (2014).
# (§4) The first search was performed with 30 parts per million mass tolerance for peptide precursors and 30 mD (HCD) mass tolerance for fragment ions followed by a final search using recalibrated data with a 10 parts per million mass tolerance for peptide precursors and 20 mD (HCD) mass tolerance for fragment ions. Carbamidomethylation of cysteine residues and TMT modification of lysine residues were set as fixed modifications and methionine oxidation, and N-terminal acetylation of proteins and TMT modification of peptide N-termini were set as variable modifications. […]
# (§5) Nat Biotech 29, 255-265 (2011). this measure is referred to as ion area Savitski, M. M. et al. Delayed Fragmentation and Optimized Isolation Width Settings for Improvement of Protein Identification and Accuracy of Isobaric Mass Tag Quantification on Orbitrap-Type Mass Spectrometers. […]
# PTK2 = target: T2, PTK2 (Homo sapiens, UniProt Q05397); assay: Expression proteomics in THP-1 cells: PTK2 protein level; settings: PTK2, THP-1 cells
# T2 construct: endogenous in cells; host or cells: THP-1
# Method: as §1, §2, §3, §4, §5
# MAPK9 = target: T3, MAPK9 (Homo sapiens, UniProt P45984); assay: Expression proteomics in THP-1 cells: MAPK9 protein level; settings: MAPK9, THP-1 cells
# T3 construct: endogenous in cells; host or cells: THP-1
# Method: as §1, §2, §3, §4, §5
# T2 sequence (Q05397 whole entry): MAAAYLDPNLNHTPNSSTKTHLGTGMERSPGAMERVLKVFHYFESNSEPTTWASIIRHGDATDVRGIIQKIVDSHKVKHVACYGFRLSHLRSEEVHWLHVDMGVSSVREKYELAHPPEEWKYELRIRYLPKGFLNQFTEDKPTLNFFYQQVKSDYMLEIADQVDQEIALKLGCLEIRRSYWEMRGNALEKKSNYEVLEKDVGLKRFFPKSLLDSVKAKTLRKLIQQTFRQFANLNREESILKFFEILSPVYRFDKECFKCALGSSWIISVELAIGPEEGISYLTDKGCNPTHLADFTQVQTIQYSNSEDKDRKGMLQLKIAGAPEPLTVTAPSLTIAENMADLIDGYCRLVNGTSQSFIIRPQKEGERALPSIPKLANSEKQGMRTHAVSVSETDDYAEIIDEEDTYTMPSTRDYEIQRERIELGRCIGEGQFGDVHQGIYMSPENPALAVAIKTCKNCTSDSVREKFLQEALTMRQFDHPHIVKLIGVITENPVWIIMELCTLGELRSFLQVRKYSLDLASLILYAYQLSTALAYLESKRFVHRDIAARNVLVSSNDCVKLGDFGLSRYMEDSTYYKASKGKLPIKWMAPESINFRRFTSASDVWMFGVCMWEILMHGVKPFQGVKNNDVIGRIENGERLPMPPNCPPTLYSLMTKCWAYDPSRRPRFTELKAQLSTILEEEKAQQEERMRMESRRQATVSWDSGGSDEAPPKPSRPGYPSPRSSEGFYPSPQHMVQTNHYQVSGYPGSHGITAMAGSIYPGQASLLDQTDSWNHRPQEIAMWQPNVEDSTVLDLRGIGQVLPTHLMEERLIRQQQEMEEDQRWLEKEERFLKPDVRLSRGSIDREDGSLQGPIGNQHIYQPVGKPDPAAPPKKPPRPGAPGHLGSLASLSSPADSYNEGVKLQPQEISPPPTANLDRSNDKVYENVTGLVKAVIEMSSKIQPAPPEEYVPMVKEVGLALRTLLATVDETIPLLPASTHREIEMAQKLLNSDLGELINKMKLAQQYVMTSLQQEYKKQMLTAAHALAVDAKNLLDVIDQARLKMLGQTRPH
# T3 sequence (P45984 whole entry): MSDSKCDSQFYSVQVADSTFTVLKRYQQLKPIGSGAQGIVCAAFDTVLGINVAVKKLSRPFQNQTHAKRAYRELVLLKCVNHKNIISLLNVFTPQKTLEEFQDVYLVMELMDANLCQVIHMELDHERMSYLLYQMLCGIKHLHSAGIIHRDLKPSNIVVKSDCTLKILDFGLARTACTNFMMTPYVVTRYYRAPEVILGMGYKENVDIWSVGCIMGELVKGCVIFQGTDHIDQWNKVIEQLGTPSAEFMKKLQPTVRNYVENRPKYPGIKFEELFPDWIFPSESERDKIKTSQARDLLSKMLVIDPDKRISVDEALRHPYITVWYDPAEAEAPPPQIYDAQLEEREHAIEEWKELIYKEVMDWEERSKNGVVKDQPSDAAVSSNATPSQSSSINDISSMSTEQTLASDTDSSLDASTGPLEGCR
smiles,measurement,setting,value
"CNC(=O)c1ccccc1Nc1nc(Nc2ccc(N3CCN(CCOCCOCCOCCOCC(=O)Nc4cccc5c4CN(C4CCC(=O)NC4=O)C5=O)CC3)cc2)ncc1Cl.O=CO (stereo not drawn) [CEREBLON_PROTAC, 14-(4-(4-((5-Chloro-4-((2-(methylcarbamoyl)phenyl)amino)pyrimidin-2-yl)amino)phenyl)piperazin-1-yl)-N-(2-(2,6-dioxopiperidin-3-yl)-1-oxoisoindolin-4-yl)-3,6,9,12-tetraoxatetradecan-1-amide formate]",log2 rel. fc. to vehicle control,"IRAK3; 24 h 0.1 μM, n = 1",−2.25
same,log2 rel. fc. to vehicle control,"IRAK3; 24 h 0.1 μM, n = 2",−1.82
same,log2 rel. fc. to vehicle control,"IRAK3; 24 h 1 μM, n = 1",−1.65
same,log2 rel. fc. to vehicle control,"IRAK3; 24 h 1 μM, n = 2",−1.86
same,log2 rel. fc. to vehicle control,"PTK2; 24 h 0.1 μM, n = 1",−2.29
same,log2 rel. fc. to vehicle control,"PTK2; 24 h 0.1 μM, n = 2",−2.92
same,log2 rel. fc. to vehicle control,"PTK2; 24 h 1 μM, n = 1",−2.42
same,log2 rel. fc. to vehicle control,"PTK2; 24 h 1 μM, n = 2",−2.20
same,log2 rel. fc. to vehicle control,"MAPK9; 24 h 0.1 μM, n = 1",−0.69
same,log2 rel. fc. to vehicle control,"MAPK9; 24 h 0.1 μM, n = 2",−0.98
same,log2 rel. fc. to vehicle control,"MAPK9; 24 h 1 μM, n = 1",−1.83
same,log2 rel. fc. to vehicle control,"MAPK9; 24 h 1 μM, n = 2",−1.75
